These results are taken from US8114865B2, “Indazole derivatives as kinase inhibitors for the treatment of cancer” (Nerviano Medical Sciences S.R.L., priority 2006, dated 2012).

For the test, the target named is IGF-1R (Homo sapiens, UniProt P08069). The test can be described thus: Western blot analysis of receptor phosphorylation following stimulation with IGF-1 in MCF-7 human breast cancer cells. The format is cell-based. Details: endogenous in cells; host or cells: MCF-7 (ATCC# HTB-22). The conditions noted are these: starved MCF7 cells, 10 nM IGF1, increasing concentrations of compound, FIG. 1. As for the experimental part: [formula] where νb is the baseline velocity, v is the observed reaction velocity, vo is the velocity in the absence of inhibitors, and [I] is the inhibitor concentration. Cell-Based Assays for Inhibitors of IGF-1R Kinase Activity Western Blot Analysis of Receptor Phosphorylation Following Stimulation with IGF-1 in MCF-7 Human Breast Cancer Cells
Chain of IGF-1R (P08069 31-1367): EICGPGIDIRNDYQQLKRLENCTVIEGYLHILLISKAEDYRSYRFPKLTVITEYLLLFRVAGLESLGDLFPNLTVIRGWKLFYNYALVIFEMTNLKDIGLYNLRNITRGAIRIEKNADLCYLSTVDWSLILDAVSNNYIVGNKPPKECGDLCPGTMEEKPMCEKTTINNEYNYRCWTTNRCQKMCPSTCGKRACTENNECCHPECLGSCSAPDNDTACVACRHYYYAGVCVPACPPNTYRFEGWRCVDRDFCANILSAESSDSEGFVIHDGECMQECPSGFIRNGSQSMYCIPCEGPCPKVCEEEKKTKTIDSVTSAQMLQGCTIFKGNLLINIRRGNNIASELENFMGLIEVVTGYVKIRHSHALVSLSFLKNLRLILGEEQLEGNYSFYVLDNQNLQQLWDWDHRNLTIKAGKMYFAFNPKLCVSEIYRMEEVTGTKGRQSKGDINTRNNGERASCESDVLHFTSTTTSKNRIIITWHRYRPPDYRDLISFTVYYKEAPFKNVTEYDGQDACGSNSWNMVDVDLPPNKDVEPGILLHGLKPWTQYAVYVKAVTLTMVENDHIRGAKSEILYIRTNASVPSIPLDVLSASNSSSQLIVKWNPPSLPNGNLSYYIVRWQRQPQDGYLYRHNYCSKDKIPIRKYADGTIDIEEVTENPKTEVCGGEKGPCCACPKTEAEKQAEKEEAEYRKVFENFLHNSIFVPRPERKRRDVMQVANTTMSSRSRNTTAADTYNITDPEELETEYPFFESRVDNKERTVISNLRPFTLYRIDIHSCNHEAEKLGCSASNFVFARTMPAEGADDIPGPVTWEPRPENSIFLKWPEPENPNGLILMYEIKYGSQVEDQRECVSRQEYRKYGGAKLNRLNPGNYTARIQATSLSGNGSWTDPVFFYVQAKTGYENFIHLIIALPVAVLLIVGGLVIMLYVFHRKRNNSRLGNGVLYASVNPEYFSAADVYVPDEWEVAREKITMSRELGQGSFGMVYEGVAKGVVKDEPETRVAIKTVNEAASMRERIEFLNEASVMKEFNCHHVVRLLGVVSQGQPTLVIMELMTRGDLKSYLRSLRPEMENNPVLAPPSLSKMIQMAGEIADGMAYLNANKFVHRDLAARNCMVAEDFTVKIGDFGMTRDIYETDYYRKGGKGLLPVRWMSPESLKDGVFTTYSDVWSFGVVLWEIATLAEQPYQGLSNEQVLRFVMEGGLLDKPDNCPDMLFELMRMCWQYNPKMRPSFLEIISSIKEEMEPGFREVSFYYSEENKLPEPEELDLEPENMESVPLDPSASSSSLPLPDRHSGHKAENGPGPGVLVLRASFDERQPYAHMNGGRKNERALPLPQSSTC
MCF-7 cells (ATCC# HTB-22) were seeded in 12-well tissue culture plates at 2×10^5 cells/well in E-MEM medium (MEM+Earle's BSS+2 mM glutamine+0.1 mM non-essential amino acids)+10% FCS, and incubated overnight at 37° C., 5% CO2, 100% relative humidity. Cells were then starved by replacing E-MEM+10% FCS with E-MEM+0.1% BSA, and incubating overnight. After this incubation, wells were treated with desired concentrations of compound for 1 hour at 37° C., and were then stimulated with 10 nM recombinant human IGF-1 (Invitrogen, Carlsbad, Calif., USA) for 10 minutes at 37° C. Cells were then washed with PBS and lysed in 100 microL/well cell lysis buffer (M-PER Mammalian Protein Extraction Reagent [Product #78501, Pierce, Rockford, Ill., USA]+10 mM EDTA+Protease inhibitor cocktail [Sigma-Aldrich product #P8340]+phosphatase inhibitor cocktail [Sigma-Aldrich products #P2850+#P5726]). Cell lysates were cleared by centrifugation at 10,000×g for 5 minutes, and 10 microg/lane of cleared lysate protein were run on NuPAGE gels (NuPAGE 4-12% 10-lane Bis-Tris gels, Invitrogen) with MOPS running buffer, then transferred onto Hybond-ECL nitrocellulose filters (Amersham Biosciences, Little Chalfont, Buckinghamshire, UK) using Mini PROTEAN II chambers (Bio-Rad Laboratories, Hercules, Calif., USA). […]
With `CN1CCN(c2ccc(C(=O)Nc3n[nH]c4ccc(S(=O)(=O)c5ccccc5)cc34)cc2)CC1` [Compound 1, N-(5-Benzenesulfonyl-1H-indazol-3-yl)-4-(4-methyl-piperazin-1-yl)-benzamide], the “inhibition of IGF1-induced IGF1R auto-phosphorylation” value is reported as “inhibition of IGF1-induced IGF1R auto-phosphorylation”.
Consider `CN1CCN(c2ccc(C(=O)Nc3n[nH]c4ccc(S(=O)(=O)c5ccccc5)cc34)c(NC(=O)c3ccc[nH]3)c2)CC1` [Compound 33, 1H-pyrrole-2-carboxylic acid [2-(5-benzenesulfonyl-1H-indazol-3-ylcarbamoyl)-5-(4-methyl-piperazin-1-yl)-phenyl]amide], for which the “inhibition of IGF1-induced IGF1R auto-phosphorylation” value is reported as “inhibition of IGF1-induced IGF1R auto-phosphorylation”.
Then `CN1CCN(c2ccc(C(=O)Nc3n[nH]c4ccc(S(=O)(=O)c5ccccc5)cc34)c(NC(=O)[C@@H]3CCCO3)c2)CC1` [Compound 36, (S)-Tetrahydro-furan-2-carboxylic acid [2-(5-benzenesulfonyl-1H-indazol-3-ylcarbamoyl)-5-(4-methyl-piperazin-1-yl)-phenyl]-amide], with “inhibition of IGF1-induced IGF1R auto-phosphorylation”.
